Data as given in patent US7273723B2, “Antibiotic-based gene regulation system” (priority 2001, dated 2007).

Experiments:
[1] = tested on: ET1 (MphR(A)-VP16) / PETR promoters; experiment: SEAP reporter assay, CHO lines stably expressing ET1 (CHO-ET11, CHO-ET12) transiently transfected with PETR-SEAP plasmids; assay type: cell-based; conditions: for SEAP Production (%) +EM: 2 μg/ml EM, −EM = 100; for SEAP activity [U/L] + EM: erythromycin 2 μg/ml
Procedure: (§1) Chinese hamster ovary cells (CHO-K1, ATCC: CCL 61), and HeLa cells (ATCC: CRL-7923) as well as stable cell lines derived thereof were cultured as described before (Fussenegger et al., 1998, Nat. Biotechnol. 16,468-472) in the presence of appropriate antibiotics: G418 400 μg/ml; zeocin 100 μg/ml. Optimized CaPO4 protocols were used for high efficiency transient transfection of all cell lines (Fussenegger et al., 1998. Nat. Biotechnol. 16: 468-472). Transiently transfected cells were routinely analyzed after 48 h for CFP or SEAP expression using fluorescence microscopy and p-nitrophenolphosphate-based light absorbance timecourse, respectively, as described before (Fussenegger et al., 1998, Nat. Biotechnol. 16, 468-472; Berger et al., 1988, Gene 66, 1-10 b). For construction of stable CHO-ET1 and CHO-Triplet42 cell lines, CHO-Ki and CHO-TWIN1108 (Disclosed in PCT application no. 00/65080) were cotransfected with pWW35 and pZeoSV2 (invitrogen). CHO-ET11-SEAP was constructed by cotransfection of pWW38 and pSV2neo (Clontech) into CHO-ET11. The mixed populations were cloned using FACS-mediated single-cell-sorting (FACStar^Plus; Beckton Dickinson). For assessment of dose-response characteristics of PETR3-regulated gene expression, CHO-ET11-SEAP were cultured at cell densities of 50,000/ml for 48 h at various EM concentrations.
(§2) Other antibiotics were eluted from antibiotic test discs (Mast Diagnostica GmbH, Reinfeld, Germany, or bioMérieux, Geneva Switzerland) in cell culture medium at 37° C. for 12 h to reach a final concentration of 30 μg/ml. All macrolide antibiotics were used at a 2 μg/ml concentration unless indicated otherwise.
Two representative clones, CHO-ET11 and CHO-ET12, were chosen at random among ET1-expressing CHO cell clones stably transfected with a constitutive ET1 expression construct (pWW35).
Access to alternative effective antibiotics would expand the spectrum of regulating agents available for future use in human cell and gene therapy. Accordingly, several commercially available antibiotic sources were tested for their potential to regulate the ET1/PETR3 system as shown below in Table 3.
The effect of the different spacer length in promoters PETR2 and PETR7-PETR11 were examined by transfecting the corresponding plasmids (pWW37, pBP10-pBP14) into a CHO cell line stably transfected with the transactivator ET1 (MphR(A)-VP 16, see example 1).

[2] = molecular target: T1, tTA / tetracycline-responsive promoter PhCMV*-1 (Escherichia coli, UniProt P04483); experiment: SEAP assay in CHO-Triplet42 transfected with PhCMV*-1-SEAP (pMF111); assay type: cell-based; conditions: CHO-Triplet42 + pMF111 (PhCMV*-1); antibiotic 2 μg/ml; 48 h
T1 construct: expressed in transfected cells; host or cells: CHO-Triplet42 (from CHO-TWIN1108)
T1 sequence (P04483 whole entry, added parts left off): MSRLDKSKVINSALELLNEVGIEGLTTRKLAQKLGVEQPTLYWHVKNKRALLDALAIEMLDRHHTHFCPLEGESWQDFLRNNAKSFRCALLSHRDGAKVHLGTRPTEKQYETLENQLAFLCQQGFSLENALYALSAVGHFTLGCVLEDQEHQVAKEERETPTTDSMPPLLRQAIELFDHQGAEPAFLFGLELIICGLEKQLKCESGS
Procedure: as §1, §2

[3] = tested on: ET1 / plant promoters PETRp1, PETRp8; experiment: EpOFF erythromycin-repressible GUS expression in Nicotiana tabacum SR1 suspension cells; assay type: cell-based; conditions: erythromycin 250 μg/ml, 48 hours
Procedure: The transformation protocol of SR1 cells was adapted from Wu and Feng (1999, Plant Cell Reports 18: 381-386). In brief, 200 mg of exponentially growing SR1 cells were harvested by centrifugation. The cells were incubated for 15 min. in 2% DMSO and washed twice in fresh medium. Cells were subsequently resuspended in electroporation buffer (5 mM CaCl2; 10 mM NaCl2; 0.4 M sucrose; 8.7% glycerol; 4 mM ascorbate; 10 mM HEPES; pH 6.8) and mixed with desired DNA at a concentration of 0.2 μg/μl. The cell-DNA mixture was incubated for 10 min. on ice electroporated at 700 V/cm and 980 μF using a BioRad Gene Pulser and appropriate cuvettes. […]
Transformed SR1 cells were incubated at 25° C. for 48 h while rocking at 110 rpm. […] Protein concentration of plant extracts was determined using a Bradford assay (Bradford, 1976, Anal. Biochem. 72: 248-254). […] The fluorescence time course was determined using typical 365 nm/455 nm excitation/emission profiles and a Shimadzu RF-5001 PC spectrofluorophotometer.
pBP6 (PCaMV35S-ET1-pAocs, FIG. 9a) was cotransformed either with pBP 18 (PETRp1-GUS-pA35S; FIG. 9b) or pBP36 (PETRp8-GUS-pA35S; FIG. 9b) by electroporation into the Nicotiana tabacum cell line SR1. GUS activity was assessed after 48 hours using a fluorescence-based detection technology.

CHO cells = experiment: CHO cell morphology and growth in the presence of EM; assay type: cell-based, Chinese hamster; conditions: EM 2 μg/ml
[4] = tested on: PSV40 or PhCMV-driven SEAP expression constructs; experiment: SEAP expression from constitutive PSV40 or PhCMV-driven constructs with erythromycin; assay type: cell-based; conditions: data not shown
[5] = tested on: PETR1-YFP and PhCMV*-1-CFP expression units; experiment: Dual-regulated vector pDuoRex9 (pWW94) in CHO-Triplet42 by fluorescence microscopy; assay type: cell-based; conditions: transient transfection into CHO-Triplet42

In the case of `CC[C@H]1OC(=O)[C@H](C)[C@@H](O[C@H]2C[C@@](C)(OC)[C@@H](O)[C@H](C)O2)[C@H](C)[C@@H](O[C@@H]2O[C@H](C)C[C@H](N(C)C)[C@H]2O)[C@](C)(O)C[C@@H](C)C(=O)[C@H](C)[C@@H](O)[C@]1(C)O` [Erythromycin], the “SEAP Production (%) +EM” value ([1]; CHO-ET11 + PETR3-SEAP (pWW38)) is reported as 1.75 ± 0.1%, the “SEAP production [%]” value ([1]; CHO-ET11 transiently transfected with pWW38, 48 h, antibiotic 2 μg/ml, no macrolide = 100) is reported as 1.7 ± 0.1% and the “SEAP Production (%) +EM” value ([1]; CHO-ET12 + PETR3-SEAP (pWW38)) is reported as 4.67 ± 0.8%. The “Reversibility of EM-responsive SEAP regulation” value ([1]; both CHO-ET1 derivatives, repeated cycles of addition and withdrawal) was “fully reversible”, the “SEAP activity [U/L] + EM” value ([1]; pBP10 (PETR7, 2 bp) in CHO stably transfected with ET1, 48 h) was 4.2 ± 1.0 U/L and the “SEAP activity [U/L] + EM” value ([1]; pBP12 (PETR9, 6 bp) in CHO stably transfected with ET1, 48 h) was 8.4 ± 1.6 U/L. The “SEAP activity [U/L] + EM” value ([1]; pBP13 (PETR10, 8 bp) in CHO stably transfected with ET1, 48 h) was 19.7 ± 1.4 U/L, the “SEAP activity [U/L] + EM” value ([1]; pWW37 (PETR2, 0 bp) in CHO stably transfected with ET1, 48 h) was 8.3 ± 0.2 U/L and the “SEAP activity [U/L]” value [2] was 195.1 ± 15.1 U/L. The “GUS expression level in the presence of erythromycin” value ([3]; pBP6 + pBP18 (PETRp1)) was 32.2±3.9 pmoles 4-MU min^−1 mg^−1 protein^−1, the “GUS expression level in the presence of erythromycin” value ([3]; pBP6 + pBP36 (PETRp8)) was 44.2±4.6 pmoles 4-MU min^−1 mg^−1 protein^−1 and the “Effects on CHO cell morphology and growth” value (CHO cells) was “No deleterious effects”. For the same compound, the “Influence on expression levels of PSV40 or PhCMV-driven SEAP expression constructs” value [4] was “no influence” and the “YFP and CFP expression from pDuoRex9 (fluorescence microscopy)” value [5] was “independent on/off-regulation”.
